Data reported in patent publication US20250066282A1, “NOVEL ANALOGS OF VALPROIC ACID AND METHODS OF MEDICAL TREATMENT USING THE SAME” (Cereno Scientific AB, priority 2021, published 2025).
Values belong to the compound of their own block, whether it stands above or below them.

Assays:
[1] = reported by Rettie, J. Biol. Chem. 263(27):13733-13738 (1988); cited from earlier work
C57BL/6 wild type mice [2] = assay: Excessive bleeding assay (tail bleeding time); assay type: in vivo; details: tail resection 5 mm, 100 mg/kg IP once a day for five days, compared to control (FIG. 1)
Description: To determine the risks of excessive bleeding associated with the compounds of the present invention, the last 5 mm of the tail of mice was resected to identify the amount of time necessary for the vessel to properly clot and prevent excessive loss of blood.
10-12 weeks old C57BL/6 wild type mice were purchased from Jackson Laboratories for these experiments. Various compounds were administered to the mice via IP injection once a day at a dose of 100 mg/kg of compound for five days prior to resection.
Mice were sedated with 250 μL of ketamine solution (Ketamine (100 μL)/xylazine (50 μL) in 850 μl. Saline solution). The mice were then placed face down on a heat pad on top of the bead bath to enable the tail to be pulled into a saline-filled tube. 5 mm of the tail as cut with a scalpel and the tail was placed in a saline-filled tube and a timer started. The timer was stopped when the bleeding stopped, but the possibility of re-bleeds was observed from 10 minutes after initial bleeding stopped. If the mouse bleeds continuously for 10 minutes, the experiment was halted and the mouse was euthanized. One-way ANOVA with Dunnett's correction for multiple comparison test was performed to determine statistical significance of bleeding times.

C57BL/6 wild type mice [3] = assay: Cremaster laser-induced thrombosis assay (platelet accumulation, fibrin formation); assay type: in vivo; details: cremaster arteriole laser-induced injury
Description: The effects of the compounds of the invention and VPA on the ability and timing of clot formation were determined. Specifically, platelet accumulation and fibrin formation in the cremaster artery in forming a non-occlusive clot were measured following laser-induced insult to the vessel in 10-12 week-old mice (C57BL/6 wild type mice purchased from Jackson Laboratories).
Valproic acid (VPA) was purchased from Sigma-Aldrich as a powder and resuspended in 0.9% Sodium Chloride (saline) to prepare a final stock solution of each compound.
To assess platelet accumulation and fibrin formation, a Zeiss Axio Examiner Z1 fluorescent multichannel intravital microscope was used. The microscope was equipped with: (1) a solid laser launch system (LaserStack; Ablate! Photoablation system, intelligent Imaging innovations), (2) a high-speed sCMOS camera, and (3) a laser ablation system (intelligent Imaging innovations, Denver, CO, USA). SlideBook 6.0 digital microscopy software for image recording and analysis was also used. An anti-platelet antibody, and an anti-fibrin antibody, both commercially available, were used for imaging purposes.
The dynamic accumulation of platelets and fibrin within thrombi at the site of the injury in vivo was evaluated in cremaster arteriole in response to laser-induced injury under intravital microscopy. Adult male mice (10-12 weeks old) were treated with 30 mg/kg and 100 mg/kg for 5 days prior to injury were anesthetized by an intraperitoneal injection of ketamine/xylazine (100 and 10 mg/kg, respectively) and the jugular vein was cannulated. A tracheal tube was inserted to facilitate breathing. The cremaster arteriole was surgically prepared and superfused with preheated bicarbonate saline buffer throughout the experiment.
DyLight 488-conjugated rat anti-mouse platelet GP1bβ antibody (0.1 μg/g; EMFRET Analytics) and Alexa Fluor 647-conjugated anti-fibrin (0.3 μg/g) were administered intravenously via a jugular vein cannula prior to vascular injury. Microcirculation was monitored and recorded under multichannel intravital microscopy.
Multiple independent thrombi (6-8 thrombi in each mouse) were induced in the arterioles (30-50 μm diameter) in each mouse by a laser ablation system. Images of thrombus formation at the site of injured arterioles were acquired in realtime under 63× water-immersion objective with a Zeiss Axio Examiner Z1 fluorescent microscope equipped with solid laser launch system (LaserStack; Intelligent Imaging Innovations) and high-speed sCMOS camera. All captured images were analyzed for the change of fluorescent intensity over the course of thrombus formation after subtracting fluorescent background using the Slidebook program. […]

[4] = 100 mg/kg IP for 5 days, versus VPA (FIG. 4)

Compound: [2H]C([2H])(C)CC(CC([2H])([2H])C)C(=O)O [4,4,4′,4′-D4VPA]
formation of the 4-ene-VPA metabolite compared to VPA [1]: considerably less formation of the 4-ene metabolite

Compound: [2H]C([2H])C([2H])([2H])CC(CC([2H])([2H])C([2H])[2H])C(=O)O [Compound Ia, 2-[(2,2,3,3-2H4)propyl](4,4,5,5-2H4)pentanoic acid]
bleeding time (C57BL/6 wild type mice [2]): best safety profile in terms of risk of excess bleeding | platelet accumulation (C57BL/6 wild type mice [3]; 30 mg/kg IP for 5 days, versus VPA (FIG. 2)): consistent decrease | fibrin formation (C57BL/6 wild type mice [3]; 30 mg/kg IP for 5 days, versus VPA (FIG. 3)): consistent decrease | platelet accumulation (C57BL/6 wild type mice [3]; [4]): consistent decrease in platelet accumulation over VPA

Compound: [2H]C([2H])([2H])CCC(CCC([2H])([2H])[2H])C(=O)O [5,5,5,5′,5′,5′D6VPA]
formation of the 4-ene-VPA metabolite compared to VPA [1]: increased amount of the 4-ene-VPA metabolite

Compound: [2H]C([2H])C([2H])([2H])CC([2H])(CC([2H])([2H])C([2H])[2H])C(=O)O [Compound Ib, 2-(Propyl-2,2,3,3-d4)pentanoic-2,4,4,5,5-d5 acid]
platelet accumulation (C57BL/6 wild type mice [3]; [4]): consistent decrease in platelet accumulation over VPA

bleeding time (C57BL/6 wild type mice [2]): significant increase in bleeding time
Compound: CCCC(CCC)C(=O)O [VPA, Valproic acid]
